Consider seven molecules from patent publication US20240150298A1, “ANTIBACTERIAL COMPOUNDS” (Blacksmith Medicines, Inc., priority 2021, published 2024).

≈ marks a conversion by molar mass, not a printed value.

The test system of experiment [1] is E. coli ATCC25922. The experiment is described as follows: Bacterial susceptibility testing, MIC by broth microdilution (CLSI). It is filed as cell-based. The settings on record: Escherichia coli, ATCC25922, broth microdilution, 35° C., 18-24 h; read-out: MIC E. coli ATCC25922. In outline:
(§1)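 Broth microdilution per CLSI in cation-adjusted Mueller-Hinton broth, inoculum 3×10^5–7×10^5 CFU/mL, 2-fold serial drug dilutions in DMSO. Incubated in ambient air at 35° C for 18-24 h. MIC taken as lowest concentration preventing visible growth (OD600 nm<0.05).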
(In broth dilution the organism is exposed to a series of concentrations in liquid medium.)

Experiment [2] concerns K. pneumoniae ATCC13883. The description is as above. It is filed as cell-based. The settings on record: Klebsiella pneumoniae, ATCC13883, broth microdilution, 35° C., 18-24 h; read-out: MIC K. pneumoniae ATCC13883. In a few lines:
as §1

The test system of experiment [3] is P. aeruginosa 209 PAO1. Described as above. The note with it: Pseudomonas aeruginosa, PAO1, broth microdilution, 35° C., 18-24 h; read-out: MIC P. aeruginosa 209 PAO1. Type of experiment: cell-based. In outline: as §1
For experiment [4], the system named is P. aeruginosa ATCC27835. Described as above. Type of experiment: cell-based. The settings on record: Pseudomonas aeruginosa, ATCC27835, broth microdilution, 35° C., 18-24 h; read-out: MIC P. aeruginosa ATCC27835. In a few lines: as §1
Experiment [5] has as its target E. coli LpxC (Escherichia coli, UniProt P0A725). The experiment is described as follows: LpxC Binding Assay (Rapid Fire MS assay). It is filed as biochemical. The procedure: (§2) IC50 values against E. coli and P. aeruginosa LpxC are determined using a Rapid Fire MS assay as previously described J. Med. Chem. 2012, 55, 1662-1670.
In experiment [6] the target is T1, P. aeruginosa LpxC (Pseudomonas aeruginosa, UniProt P47205).
T1 sequence (P47205 1-303): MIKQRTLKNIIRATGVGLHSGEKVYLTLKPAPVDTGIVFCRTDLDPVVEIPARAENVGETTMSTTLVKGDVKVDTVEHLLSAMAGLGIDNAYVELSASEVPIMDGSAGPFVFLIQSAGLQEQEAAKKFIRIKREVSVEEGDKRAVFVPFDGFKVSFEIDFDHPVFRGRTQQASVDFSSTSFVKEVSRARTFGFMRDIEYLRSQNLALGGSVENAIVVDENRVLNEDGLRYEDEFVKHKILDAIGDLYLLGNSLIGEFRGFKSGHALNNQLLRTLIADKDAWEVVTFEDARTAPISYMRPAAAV
The experiment is described as follows: LpxC Binding Assay (Rapid Fire MS assay). Type of experiment: biochemical. The procedure: as §2

For experiment [7], the target named is K. pneumoniae LpxC (Klebsiella pneumoniae subsp. pneumoniae, UniProt A6T4N9). The experiment is described as follows: LpxC Binding Assay (Rapid Fire MS assay). Type of experiment: biochemical.
K. pneumoniae LpxC, sequence (A6T4N9 whole entry): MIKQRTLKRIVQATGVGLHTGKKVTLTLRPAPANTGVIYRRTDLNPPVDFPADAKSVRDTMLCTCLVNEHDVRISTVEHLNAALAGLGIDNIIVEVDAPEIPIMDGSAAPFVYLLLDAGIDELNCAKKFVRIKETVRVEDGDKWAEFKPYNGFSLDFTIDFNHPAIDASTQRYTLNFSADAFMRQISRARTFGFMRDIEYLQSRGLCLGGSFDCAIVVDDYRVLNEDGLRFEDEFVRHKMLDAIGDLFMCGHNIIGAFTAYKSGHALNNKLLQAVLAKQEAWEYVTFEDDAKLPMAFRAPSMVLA

E. coli LpxC, sequence (P0A725 whole entry): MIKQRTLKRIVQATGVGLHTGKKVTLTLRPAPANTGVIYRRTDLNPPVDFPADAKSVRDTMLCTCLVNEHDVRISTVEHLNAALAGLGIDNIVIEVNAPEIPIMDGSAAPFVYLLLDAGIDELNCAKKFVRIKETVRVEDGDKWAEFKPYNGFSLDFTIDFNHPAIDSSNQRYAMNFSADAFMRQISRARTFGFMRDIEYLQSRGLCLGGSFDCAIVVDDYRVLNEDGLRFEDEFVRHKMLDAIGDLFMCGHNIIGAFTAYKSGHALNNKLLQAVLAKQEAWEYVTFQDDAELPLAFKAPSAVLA

In the case of `C[C@H](O)c1nccn1[C@@H](/C=C/c1ccc(-c2ccc(OCC(N)CO)cc2)cc1)CCO` (mixture of isomers) [Compound 19, (3R,E)-5-(4′-(2-amino-3-hydroxypropoxy)-[1,1′-biphenyl]-4-yl)-3-(2-((S)-1-hydroxyethyl)-1H-imidazol-1-yl)pent-4-en-1-ol], the MIC worked out at 8 µg/mL (≈ 18.3 µM) in experiment [1], 64 µg/mL (≈ 146 µM) in experiment [2], 4 µg/mL (≈ 9.14 µM) in experiment [3] and 4 µg/mL (≈ 9.14 µM) in experiment [4]. In addition, the values for the IC50 in experiment [5], in experiment [6] and in experiment [7] were 5.1 nM, 62.3 nM and 8 nM, respectively.

Turning to `C[C@H](O)c1nccn1[C@@H](/C=C/c1ccc(-c2ccc(OC[C@@H](O)CO)cc2F)cc1)CO` [Compound 32, (S)-3-((2-fluoro-4′-((S,E)-4-hydroxy-3-(2-((S)-1-hydroxyethyl)-1H-imidazol-1-yl)but-1-en-1-yl)-[1,1′-biphenyl]-4-yl)oxy)propane-1,2-diol], the MIC in experiment [1] was 2 µg/mL (≈ 4.52 µM); in experiment [2] it was 8 µg/mL (≈ 18.1 µM); in experiment [3], 4 µg/mL (≈ 9.04 µM); in experiment [4], 4 µg/mL (≈ 9.04 µM). Also, the half-inhibitory concentration (IC50) in experiment [5] was 1 nM; in experiment [6], 13.4 nM; in experiment [7], 1.8 nM.

Regarding `C[C@H](O)c1nccn1[C@@H](/C=C/c1ccc(-c2ccc(OC3CCN(CCO)CC3)cc2)cc1)CO` [Compound 17, (S,E)-2-(2-((S)-1-hydroxyethyl)-1H-imidazol-1-yl)-4-(4′-((1-(2-hydroxyethyl)piperidin-4-yl)oxy)-[1,1′-biphenyl]-4-yl)but-3-en-1-ol], the MIC in experiment [1] worked out at 4 µg/mL (≈ 8.38 µM); in experiment [2], 16 µg/mL (≈ 33.5 µM); in experiment [3], 4 µg/mL (≈ 8.38 µM); in experiment [4], 4 µg/mL (≈ 8.38 µM). Further, the values for the IC50 in experiment [5], in experiment [6] and in experiment [7] were 4.2 nM, 66.4 nM and 6.3 nM, respectively.

Take `C[C@H](O)c1nccn1[C@@H](/C=C/c1ccc(-c2ccc(OC[C@@H](O)CO)cc2)cc1)CO` [Compound 24, (S)-3-((4′-((S,E)-4-hydroxy-3-(2-((S)-1-hydroxyethyl)-1H-imidazol-1-yl)but-1-en-1-yl)-[1,1′-biphenyl]-4-yl)oxy)propane-1,2-diol]: the MIC in experiment [1] came out at 2 µg/mL (≈ 4.71 µM); in experiment [2], 8 µg/mL (≈ 18.8 µM); in experiment [3] it was 2 µg/mL (≈ 4.71 µM); in experiment [4] it was 2 µg/mL (≈ 4.71 µM). The IC50 in experiment [5] was 0.5 nM; in experiment [6], 17.5 nM; in experiment [7], 1.1 nM.

With `C[C@H](O)c1nccn1[C@@H](/C=C/c1ccc(-c2ccc(OCCN(CCO)CCO)cc2)cc1)CO` [Compound 28, 2,2′-((2-((4′—((S,E)-4-hydroxy-3-(2-((S)-1-hydroxyethyl)-1H-imidazol-1-yl)but-1-en-1-yl)-[1,1′-biphenyl]-4-yl)oxy)ethyl)azanediyl)bis(ethan-1-ol)], the minimum inhibitory concentration (MIC) amounted to 4 µg/mL (≈ 8.31 µM) in experiment [1], 16 µg/mL (≈ 33.2 µM) in experiment [2], 4 µg/mL (≈ 8.31 µM) in experiment [3] and 4 µg/mL (≈ 8.31 µM) in experiment [4]. Also, the values for the IC50 in experiment [5], in experiment [6] and in experiment [7] were 2.6 nM, 36.9 nM and 4.3 nM, respectively.

Take `C[C@H](O)c1nccn1[C@@H](/C=C/c1ccc(-c2ccc(C3CC(O)C3)cc2)cc1)CO` (stereo partly drawn) [Compound 39, 3-(4′-((S,E)-4-hydroxy-3-(2-((S)-1-hydroxyethyl)-1H-imidazol-1-yl)but-1-en-1-yl)-[1,1′-biphenyl]-4-yl)cyclobutan-1-ol]: the MIC in experiment [2] was determined as 0.5 µg/mL (≈ 1.24 µM); in experiment [3], 1 µg/mL (≈ 2.47 µM); in experiment [4] it was 4 µg/mL (≈ 9.89 µM). Further, the values for the IC50 in experiment [5], in experiment [6] and in experiment [7] were below 0.5 nM, 12.6 nM and 0.6 nM, respectively.

Consider `CCOCC(O)COc1ccc(-c2ccc(/C=C/[C@@H](CO)n3ccnc3[C@H](C)O)cc2)cc1` (mixture of isomers) [Compound 36, (2S,E)-4-(4′-(3-ethoxy-2-hydroxypropoxy)-[1,1′-biphenyl]-4-yl)-2-(2-((S)-1-hydroxyethyl)-1H-imidazol-1-yl)but-3-en-1-ol], for which the MIC was 1 µg/mL (≈ 2.21 µM) in experiment [2], 2 µg/mL (≈ 4.42 µM) in experiment [3] and 4 µg/mL (≈ 8.84 µM) in experiment [4]. Besides, the IC50 in experiment [5] is below 0.5 nM; in experiment [6] it was 21.3 nM; in experiment [7] it was 0.8 nM.

In general, MIC refers to the lowest concentration that inhibits growth of the organism. As a reminder, the IC50 is the point on the concentration scale where inhibition reaches its midpoint. A higher IC50 goes with weaker potency in that assay.
